The text below walks through data of patent US8778966B2, “Quinolinone derivatives as PARP and tank inhibitors” (Janssen Pharmaceutica, NV, priority 2007, dated 2014).

Common to all, as to format: cell-based, human
The test system of assay [1] is HCT116 cells. As to the kind of experiment: Antiproliferative activity, Alamar Blue assay, HCT116 cells. More on the design: key to HCT116 antiproliferative activity pIC50: pIC50 = -log IC50 (IC50: conc. reducing growth to 50% of control). The conditions noted are these: for IC50: Homo sapiens, HCT-116, HCT116 cells, read-out: HCT116 antiproliferative activity pIC50 (converted); for HCT116 antiproliferative activity pIC50: HCT116 cells. The method in brief:
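HCT116 cells seeded, adhered 24 h, then exposed to compound for 4 days; Alamar Blue (resazurin) added for 4 h at 37 °C, fluorescence read at 540/590 nm. Viability as % of untreated control, triplicate wells; IC50 by probit analysis, reported as pIC50.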
(In general: Resazurin is reduced to fluorescent resorufin, in cell work by metabolically active cells.)

For assay [2], the system named is PC3 cells. As to the kind of experiment: EB1 Comet (microtubule disruption) assay. Particulars: 1 hour treatment; for minimal effective concentration: Homo sapiens, PC-3, 1 h, read-out: EB1 pLAC (converted). The method in brief: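 PC3 human prostate cancer cells exposed to compound for 1 h at 37 °C (0.6% DMSO final), methanol-fixed, immunostained for Eb1 and imaged at 20×. Value is the lowest active concentration (LAC): the concentration at which Eb1 foci are absent in at least 50% of treated cells.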

Assay [3] deals with PC-3 cells. As to the kind of experiment: Antiproliferative activity, Alamar Blue assay, PC-3 cells. Particulars: for IC50: Homo sapiens, PC-3, PC3 cells, read-out: PC3 antiproliferative activity pIC50 (converted); for PC3 antiproliferative activity pIC50: PC3 cells. The method in brief: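 PC-3 cells seeded at 4.5×10^3 cells/ml, left to adhere 24 hr, then exposed to compound for 4 days. Resazurin (Alamar Blue) added for a further 24 hrs at 37° C; fluorescence read at 540/590 nm. Viability as % of untreated control, mean of 3 wells; IC50 by probit analysis, reported as pIC50.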

Take `Cc1cc2ccc(C(C)(C#N)C3CCc4c(C#N)cccc43)cc2[nH]c1=O` (racemic) [Compound 393]: the IC50 in assay [1] was 6310 nM; in assay [3], 10 µM. Further, the minimal effective concentration in assay [2] is 10 µM.

With `CCc1cc2ccc(C(C)(C#N)C3CCc4ccc(Br)cc43)cc2[nH]c1=O` (single isomer, unassigned) [Compound 380], the “HCT116 antiproliferative activity pIC50” value in assay [1] is recorded as 5.7. For the same compound, the “EB1 pLAC” value in assay [2] is 6. For the same compound, the “PC3 antiproliferative activity pIC50” value in assay [3] was found to be 5.5.

As for `CCc1cc2ccc(C(C)(C#N)C3CCc4ccc(Br)cc43)cc2[nH]c1=O` (single isomer, unassigned) [Compound 381], in assay [1], the “HCT116 antiproliferative activity pIC50” value is listed as 7.3. In addition, the “EB1 pLAC” value in assay [2] stood at 7. Moreover, the “PC3 antiproliferative activity pIC50” value in assay [3] is given as 7.0.

As for `Cc1cc2ccc([C@](C)(C#N)C3CCc4cccnc43)cc2[nH]c1=O` (single isomer, unassigned) [Compound 388], the IC50 is 6310 nM in assay [1] and 10 µM in assay [3]. Also, the minimal effective concentration in assay [2] was above 10 µM.

As to `CCc1cc2ccc([C@](C)(C#N)C[C@H]3CCc4ccccc4O3)cc2[nH]c1=O` (single isomer, unassigned) [Compound 396], in assay [3], the IC50 was 7.94 µM.

As for `CCc1cc2ccc(C(C)(C#N)Cc3cccc(-c4cnn(C)c4)c3)cc2[nH]c1=O` (stereo not drawn) [Compound 17], the IC50 is 2510 nM in assay [1] and 10 µM in assay [3]. Moreover, the minimal effective concentration in assay [2] was 3.16 µM.

Consider `CCc1cc2ccc(C(C)(C#N)Cc3cccc(-c4ccccc4)c3)cc2[nH]c1=O` (stereo not drawn) [Compound 18], for which the IC50 in assay [1] was 5010 nM; in assay [3] it was 1.26 µM. In assay [2], the minimal effective concentration was 1 µM.

With `CCc1cc2ccc(C(C)(C#N)Cc3cccc(N(C)C)c3)cc2[nH]c1=O` (stereo not drawn) [Compound 20], the figures for the IC50 in assay [1] and in assay [3] were 200 nM and 0.2 µM, respectively. The minimal effective concentration in assay [2] is 0.1 µM.

As for `CCc1cc2ccc(C(C)(C#N)Cc3cccc(N4CCOCC4)c3)cc2[nH]c1=O` (stereo not drawn) [Compound 21], the IC50 in assay [1] was 1260 nM; in assay [3] it was 2 µM. Besides, in assay [2], the minimal effective concentration is 1 µM.

As for `CCc1cc2ccc(C(C)(C#N)Cc3cccc(O)c3)cc2[nH]c1=O` (stereo not drawn) [Compound 22], the IC50 in assay [1] is above 10000 nM; in assay [3], 7.94 µM.

As to `CCc1cc2ccc(C(C)(C#N)Cc3cccc(OCc4ccccc4)c3)cc2[nH]c1=O` (stereo not drawn) [Compound 23], the results for the IC50 in assay [1] and in assay [3] were 3160 nM and 5.01 µM, respectively. The minimal effective concentration in assay [2] is 10 µM.

On to `CCc1cc2ccc(C(C)(C#N)Cc3cccc(OCCOC)c3)cc2[nH]c1=O` (stereo not drawn) [Compound 24], for which the IC50 was 1000 nM in assay [1] and 1 µM in assay [3]. The minimal effective concentration in assay [2] is 1 µM.

As for `CCc1cc2ccc(C(C)(C#N)Cc3cc(C)cc(C#N)c3)cc2[nH]c1=O` (stereo not drawn) [Compound 174], the IC50 was 100 nM in assay [1] and 0.2 µM in assay [3]. For the same compound, the minimal effective concentration in assay [2] is 0.1 µM.

With `CCc1cc2ccc(C(C)(C#N)Cc3cccc(S(F)(F)(F)(F)F)c3)cc2[nH]c1=O` (stereo not drawn) [Compound 177], the results for the IC50 in assay [1] and in assay [3] were 2000 nM and 3.16 µM, respectively. Further, the minimal effective concentration in assay [2] was 1 µM.

Consider `CCc1cc2ccc(C(C)(C#N)Cc3cccc(C4(N)CC4)c3)cc2[nH]c1=O` (stereo not drawn) [Compound 180], for which the IC50 in assay [1] is 2000 nM; in assay [3], 3.16 µM. In addition, the minimal effective concentration in assay [2] is 3.16 µM.

In the case of `CCc1cc2ccc(C(C)(C#N)CCCN(C)C(=O)c3ccc(F)cc3)cc2[nH]c1=O` (stereo not drawn) [Compound 188], the IC50 in assay [1] is 1000 nM; in assay [3], 2.51 µM. Besides, the minimal effective concentration in assay [2] was 1 µM.

In the case of `CCc1cc2ccc([C@](C)(C#N)CN(C)Cc3ccc(C#N)cc3)cc2[nH]c1=O` [Compound 190], the IC50 in assay [1] was 10000 nM; in assay [3] it was 10 µM. Moreover, in assay [2], the minimal effective concentration is 10 µM.

As for `Cc1cc2ccc(C(C)(C#N)Cc3cccc(Oc4ncccn4)c3)cc2[nH]c1=O` (stereo not drawn) [Compound 191], the IC50 in assay [1] is 251 nM; in assay [3] it was 0.501 µM. In assay [2], the minimal effective concentration is 0.316 µM.

In the case of `Cc1cc2ccc(C(C)(C#N)Cc3cccc(Oc4ccccc4)n3)cc2[nH]c1=O` (stereo not drawn) [Compound 193], the figures for the IC50 in assay [1] and in assay [3] were 398 nM and 0.631 µM, respectively. For the same compound, the minimal effective concentration in assay [2] is 0.1 µM.

`CCc1cc2cc(C)c(C(C)(C#N)Cc3cccc(C#N)n3)cc2[nH]c1=O` (stereo not drawn) [Compound 208]: the IC50 in assay [1] is 6310 nM; in assay [3], 10 µM.

For `CCc1cc2ccc(C(C)(C#N)Cc3ccc(Cl)nc3Cl)cc2[nH]c1=O` (stereo not drawn) [Compound 212], the IC50 in assay [1] is 3160 nM; in assay [3] it was 5.01 µM.

Regarding `CCc1cnc(OCCC(C)(C#N)c2ccc3cc(CC)c(=O)[nH]c3c2)nc1` (stereo not drawn) [Compound 222], the IC50 in assay [1] is 3160 nM; in assay [3] it was 3.98 µM. Moreover, in assay [2], the minimal effective concentration was 10 µM.

For the compound `CCc1cc2ccc(C(C)(C#N)CCOc3nccc(OC)n3)cc2[nH]c1=O` (stereo not drawn) [Compound 223], the IC50 was 3980 nM in assay [1] and 6.31 µM in assay [3]. Moreover, in assay [2], the minimal effective concentration was 1 µM.

Turning to `CCc1cc2ccc(C(C)(C#N)Cc3ccc(OC)nc3Cl)cc2[nH]c1=O` (stereo not drawn) [Compound 224], the IC50 is 2000 nM in assay [1] and 3.16 µM in assay [3]. Further, the minimal effective concentration in assay [2] was 0.316 µM.

`Cc1cc2ccc(C(C)(C#N)Cc3cccc(C#N)n3)cc2[nH]c1=O` (stereo not drawn) [Compound 227]: the IC50 is 501 nM in assay [1] and 0.631 µM in assay [3]. In addition, the minimal effective concentration in assay [2] is 1 µM.

On to `CCc1cc2ccc(C(C)(C#N)Cc3cc4ccccc4nn3)cc2[nH]c1=O` (stereo not drawn) [Compound 238], for which the IC50 in assay [1] was 1580 nM; in assay [3], 3.98 µM. In assay [2], the minimal effective concentration was 1 µM.

Consider `Cc1cc2ccc([C@@](C)(C#N)[C@@H]3CCc4cc(Br)ccc43)cc2[nH]c1=O` [Compound 240], for which the values for the IC50 in assay [1] and in assay [3] were 10000 nM and 10 µM, respectively. The minimal effective concentration in assay [2] was above 10 µM.

With `Cc1cc2ccc([C@@](C)(C#N)[C@H]3CCc4cc(Br)ccc43)cc2[nH]c1=O` [Compound 241], the IC50 is 501 nM in assay [1] and 0.794 µM in assay [3]. Moreover, the minimal effective concentration in assay [2] is 0.316 µM.

With `Cc1cc2ccc([C@](C)(C#N)[C@@H]3CCc4cc(Br)ccc43)cc2[nH]c1=O` [Compound 242], the IC50 in assay [1] is 50.1 nM; in assay [3], 0.0794 µM. The minimal effective concentration in assay [2] was 0.1 µM.

`Cc1cc2ccc(C(C)(C#N)C3CCc4cc(Br)ccc43)cc2[nH]c1=O` (stereo not drawn) [Compound 244]: the “HCT116 antiproliferative activity pIC50” value in assay [1] is 6.8. Also, the “EB1 pLAC” value in assay [2] is listed as 7. The “PC3 antiproliferative activity pIC50” value in assay [3] was found to be 6.6.

Take `Cc1cc2ccc(C(C)(C#N)C3CCc4c(Br)cccc43)cc2[nH]c1=O` (stereo not drawn) [Compound 248]: the figures for the IC50 in assay [1] and in assay [3] were 501 nM and 0.794 µM, respectively. In addition, in assay [2], the minimal effective concentration was 0.316 µM.

`Cc1cc2ccc(C(C)(C#N)C3CCc4ccc(C#N)cc43)cc2[nH]c1=O` (stereo not drawn) [Compound 250]: the results for the IC50 in assay [1] and in assay [3] were 200 nM and 0.316 µM, respectively. Besides, in assay [2], the minimal effective concentration is 0.316 µM.

Turning to `C=C(C)c1cccc(CC(C)(C#N)c2ccc3cc(CC)c(=O)[nH]c3c2)c1` (stereo not drawn) [Compound 254], the results for the IC50 in assay [1] and in assay [3] were 501 nM and 0.794 µM, respectively. Further, the minimal effective concentration in assay [2] was 1 µM.

On to `CCc1cc2ccc(C(C#N)(CC)Cc3cccc(F)c3)cc2[nH]c1=O` (stereo not drawn) [Compound 270], for which the IC50 is 1580 nM in assay [1] and 3.16 µM in assay [3]. For the same compound, the minimal effective concentration in assay [2] was 3.16 µM.

As to `Cc1cc2ccc(C(C)(C#N)CCCCOc3ccccc3)cc2[nH]c1=O` (stereo not drawn) [Compound 272], the values for the IC50 in assay [1] and in assay [3] were 2000 nM and 5.01 µM, respectively. Also, the minimal effective concentration in assay [2] is 1 µM.

For the compound `CCc1cc2ccc(C(C)(C#N)Cc3ccnc(F)c3)cc2[nH]c1=O` (stereo not drawn) [Compound 330], the IC50 in assay [1] was 5010 nM; in assay [3] it was 10 µM.

On to `Cc1cc2ccc([C@@](C)(C#N)[C@@H]3CCCc4ccccc43)cc2[nH]c1=O` [Compound 382], for which the IC50 in assay [1] is 5010 nM; in assay [3], 10 µM.

As to `CCc1cc2ccc(C(C#N)(CC)Cc3cccc(CN)c3)cc2[nH]c1=O` (stereo not drawn) [Compound 390], the IC50 in assay [1] was 631 nM; in assay [3], 2.51 µM.

As to `CCc1cc2ccc(C(C#N)(CC)C3CCc4ccc(OC)cc43)cc2[nH]c1=O` (stereo not drawn) [Compound 403], the IC50 in assay [1] is 158 nM; in assay [3], 0.316 µM.

Consider `Cc1cc2ccc([C@@](C)(C#N)[C@H]3CCc4ccc(Br)cc43)cc2[nH]c1=O` [Compound 405], for which the IC50 is 50.1 nM in assay [1] and 0.0794 µM in assay [3].

As for `Cc1cc2ccc([C@](C)(C#N)[C@@H]3CCc4ccc(Br)cc43)cc2[nH]c1=O` [Compound 406], the IC50 in assay [1] is 10000 nM; in assay [3] it was 10 µM.

Consider `Cc1cc2ccc([C@](C)(C#N)[C@H]3CCc4ccc(Br)cc43)cc2[nH]c1=O` [Compound 407], for which the values for the IC50 in assay [1] and in assay [3] were 631 nM and 1.26 µM, respectively.
